# In US5045458A, “Antibiotics PB-6042S” (Shionogi & Co., Ltd., priority 1988, dated 1991):
# Where two headings read alike, the source gives them in different places.
# Legend:
# [1] = system: B. melaninogenicus GAI0413; experiment: MIC against anaerobic bacteria; format: cell-based
# [2] = filter paper electrophoresis and bioautography (acidic property); format: physicochemical
# From the text: Other physicochemical properties of PB-6042s in the form of sodium salt are listed below.
# F. varium ATCC8501 = experiment: MIC against anaerobic bacteria; format: cell-based; conditions: Fusobacterium varium
# E. lentum II-1 = experiment: MIC against anaerobic bacteria; format: cell-based; conditions: Eggerthella lenta, II1
# F. necrophorum ATCC25286 = experiment: MIC against anaerobic bacteria; format: cell-based; conditions: Fusobacterium necrophorum
# anaerobic bacteria = experiment: antibacterial activity against anaerobic bacteria (summary); format: cell-based; conditions: in words
# B. fragilis ATCC25285 = experiment: MIC against anaerobic bacteria; format: cell-based; conditions: Bacteroides fragilis; B. fragilis ATCC25285; read-out: MIC
# P. micros VPI5464-1 = experiment: MIC against anaerobic bacteria; format: cell-based; conditions: Parvimonas micra, VPI54641
# B. vulgatus ATCC29327 = experiment: MIC against anaerobic bacteria; format: cell-based; conditions: Phocaeicola vulgatus; B. vulgatus ATCC29327; read-out: MIC
# B. ovatus 2505 = experiment: MIC against anaerobic bacteria; format: cell-based; conditions: Bacteroides ovatus; B. ovatus 2505; read-out: MIC
# P. acens ATCC11827 = experiment: MIC against anaerobic bacteria; format: cell-based
# E. aerofaciens ATCC25986 = experiment: MIC against anaerobic bacteria; format: cell-based; conditions: Collinsella aerofaciens, ATCC25986
# [3] = system: P. asaccharolyticus ATCC14963; experiment: MIC against anaerobic bacteria; format: cell-based; conditions: Peptoniphilus asaccharolyticus, ATCC14963
# [4] = system: B. thetaiotaomicron WAL3304; experiment: MIC against anaerobic bacteria; format: cell-based; conditions: Bacteroides thetaiotaomicron; B. thetaiotaomicron WAL3304; read-out: MIC
# S. aureus SR14(R) = experiment: MIC against aerobic bacteria; conditions: Staphylococcus aureus
# B. longum ATCC15707 = experiment: MIC against anaerobic bacteria; format: cell-based; conditions: Bifidobacterium longum
# E. limosum ATCC8486 = experiment: MIC against anaerobic bacteria; format: cell-based; conditions: Eubacterium limosum; E. limosum ATCC8486; read-out: MIC
# B. bifidum JCM1122 = experiment: MIC against anaerobic bacteria; format: cell-based; conditions: Bifidobacterium bifidum
# C. perfringens ATCC13124 = experiment: microbe, parasite or virus in culture; format: cell-based; conditions: Clostridium perfringens
# [5] = system: S. constellatus ATCC27823; experiment: MIC against anaerobic bacteria; format: cell-based; conditions: Streptococcus constellatus
# E. coli NIHJ JC-2 = experiment: MIC against aerobic bacteria; conditions: Escherichia coli, NIHJJC2
# B. adolescentis JCM1250 = experiment: MIC against anaerobic bacteria; format: cell-based; conditions: Bifidobacterium adolescentis, JCM1250
# P. prevotii ATCC9321 = experiment: MIC against anaerobic bacteria; format: cell-based; conditions: Anaerococcus prevotii, ATCC9321
# P. anaerobius B-38 = experiment: MIC against anaerobic bacteria; format: cell-based; conditions: Peptostreptococcus anaerobius, B38
# L. ruminis ATCC27780 = experiment: MIC against anaerobic bacteria; format: cell-based; conditions: L. ruminis ATCC27780; read-out: MIC
# C. perfringens SAKAI = experiment: microbe, parasite or virus in culture; format: cell-based; conditions: Clostridium perfringens
# B. distasonis JU-11-1 = experiment: MIC against anaerobic bacteria; format: cell-based; conditions: Parabacteroides distasonis, JU111; B. distasonis JU-11-1; read-out: MIC
# B. fragilis GM7000 = experiment: MIC against anaerobic bacteria; format: cell-based; conditions: Bacteroides fragilis; B. fragilis GM7000; read-out: MIC
# F. nucleatum ATCC25586 = experiment: MIC against anaerobic bacteria; format: cell-based; conditions: Fusobacterium nucleatum
# P. vulgaris CN-329 = experiment: MIC against aerobic bacteria; conditions: Proteus vulgaris, CN329
# S. pyogenes C-203 = experiment: MIC against aerobic bacteria; conditions: Streptococcus pyogenes, C203
# S. pneumoniae TYPE 1 = experiment: MIC against aerobic bacteria; conditions: Streptococcus pneumoniae, TYPE1
# P. aeruginosa A25619 = experiment: MIC against aerobic bacteria; conditions: Pseudomonas aeruginosa
# L. plantarum JCM1100 = experiment: MIC against anaerobic bacteria; format: cell-based; conditions: Lactiplantibacillus plantarum
# F. mortiferum ATCC9817 = experiment: MIC against anaerobic bacteria; format: cell-based; conditions: Fusobacterium mortiferum
# K. pneumoniae SR1 = experiment: MIC against aerobic bacteria; conditions: Klebsiella pneumoniae
# S. aureus FDA JC-1 = experiment: MIC against aerobic bacteria; conditions: Staphylococcus aureus, FDAJC1
# C. difficile ATCC17857 = experiment: MIC against anaerobic bacteria; format: cell-based; conditions: Clostridioides difficile
Compound,acidic property [2],MIC (F. varium ATCC8501),MIC (F. necrophorum ATCC25286),growth inhibition of anaerobic bacteria (anaerobic bacteria),MIC (B. fragilis ATCC25285),MIC (P. micros VPI5464-1),MIC (B. vulgatus ATCC29327),MIC (B. ovatus 2505),MIC (P. acens ATCC11827),MIC (E. aerofaciens ATCC25986),MIC [3],MIC [4],MIC (S. aureus SR14(R)),MIC (E. limosum ATCC8486),MIC (C. perfringens ATCC13124),MIC [5],MIC (E. coli NIHJ JC-2),MIC (B. adolescentis JCM1250),MIC (P. prevotii ATCC9321),MIC (P. anaerobius B-38),other results
C=C1OC(=O)C(C(=O)CCCCCCCCC)=C1O [PB-6042A],acidic substances,> 100 µg/mL,6.25 µg/mL,"inhibit the growth of anaerobic bacteria, selectively",3.13 µg/mL,1.56 µg/mL,3.13 µg/mL,3.13 µg/mL,3.13 µg/mL,12.5 µg/mL,12.5 µg/mL,3.13 µg/mL,> 100 µg/mL,6.25 µg/mL,12.5 µg/mL,3.13 µg/mL,> 100 µg/mL,12.5 µg/mL,12.5 µg/mL,3.13 µg/mL,"MIC ([1]; B. melaninogenicus GAI0413, read-out: MIC): 6.25 µg/mL; MIC (E. lentum II-1; E. lentum II-1, read-out: MIC): 6.25 µg/mL; MIC (B. longum ATCC15707; B. longum ATCC15707, read-out: MIC): 6.25 µg/mL; MIC (B. bifidum JCM1122; JCM1122): 12.5 µg/mL; MIC (L. ruminis ATCC27780): 6.25 µg/mL; MIC (C. perfringens SAKAI): 12.5 µg/mL; MIC (B. distasonis JU-11-1): 3.13 µg/mL; MIC (B. fragilis GM7000): 3.13 µg/mL; MIC (F. nucleatum ATCC25586): 6.25 µg/mL; MIC (P. vulgaris CN-329): > 100 µg/mL; MIC (S. pyogenes C-203): 25 µg/mL; MIC (S. pneumoniae TYPE 1): 25 µg/mL; MIC (P. aeruginosa A25619): > 100 µg/mL; MIC (L. plantarum JCM1100; JCM1100): 12.5 µg/mL; MIC (F. mortiferum ATCC9817; ATCC9817): 12.5 µg/mL; MIC (K. pneumoniae SR1): > 100 µg/mL; MIC (S. aureus FDA JC-1): 25 µg/mL; MIC (C. difficile ATCC17857): 3.13 µg/mL"
C=C1OC(=O)C(C(=O)CCC/C=C\CCCCCC)=C1O [PB-6042B],acidic substances,> 100 µg/mL,12.5 µg/mL,"inhibit the growth of anaerobic bacteria, selectively",3.13 µg/mL,1.56 µg/mL,3.13 µg/mL,3.13 µg/mL,3.13 µg/mL,6.25 µg/mL,6.25 µg/mL,3.13 µg/mL,12.5 µg/mL,3.13 µg/mL,6.25 µg/mL,1.56 µg/mL,> 100 µg/mL,6.25 µg/mL,6.25 µg/mL,3.13 µg/mL,"MIC ([1]; GAI0413): 6.25 µg/mL; MIC (E. lentum II-1): 6.25 µg/mL; MIC (B. longum ATCC15707; ATCC15707): 6.25 µg/mL; MIC (B. bifidum JCM1122; B. bifidum JCM1122, read-out: MIC): 12.5 µg/mL; MIC (L. ruminis ATCC27780): 3.13 µg/mL; MIC (C. perfringens SAKAI): 6.25 µg/mL; MIC (B. distasonis JU-11-1): 3.13 µg/mL; MIC (B. fragilis GM7000): 3.13 µg/mL; MIC (F. nucleatum ATCC25586): 12.5 µg/mL; MIC (P. vulgaris CN-329): > 100 µg/mL; MIC (S. pyogenes C-203): 12.5 µg/mL; MIC (S. pneumoniae TYPE 1): 12.5 µg/mL; MIC (P. aeruginosa A25619): > 100 µg/mL; MIC (L. plantarum JCM1100; L. plantarum JCM1100, read-out: MIC): 12.5 µg/mL; MIC (F. mortiferum ATCC9817; F. mortiferum ATCC9817, read-out: MIC): 25 µg/mL; MIC (K. pneumoniae SR1): > 100 µg/mL; MIC (S. aureus FDA JC-1): 12.5 µg/mL; MIC (C. difficile ATCC17857): 1.56 µg/mL"
